Measurements from patent US5153180A, “Fluorinated nucleosides and process for treating retrovirus infections therewith” (priority 1990, dated 1992).
Where two headings read alike, the source gives them in different places.

Tests used:
[1] = molecular target: T1, HIV-associated reverse transcriptase (HIV-RT) (Human immunodeficiency virus type 1 group M subtype B, UniProt P04585); experiment: Inhibition of HIV-associated reverse transcriptase (polymerization of artificial templates); type: biochemical; set-up: efficacy against HIV-associated reverse transcriptase: dose or concentration left out as unconfirmed; conditions: for IC50: read-out: ID50 HIV-RT
T1 construct: HIV-associated reverse transcriptase (HIV-RT)
Description: At first the triphosphates of some compounds according to formula I were investigated for their ability to inhibit the polymerization of artificial templates (such as polyAoligodT and polyColigodG) catalyzed by HIV-associated reverse transcriptase (HIV-RT) according to the method described by A. D. Hoffman et al., Virology 147, 326, 1985. […] FdTTP, FdUTP and FdGTP are among the strongest inhibitors found so far for HIV-RT. In comparison the ID50 for 3'-azidothymidinetriphosphate was estimated under our conditions to be about […].

[2] = molecular target: T2, cellular DNA polymerase α (Bos taurus, UniProt A0AAA9TD94); experiment: Effect on cellular DNA polymerase α; type: biochemical; conditions: enzyme purified from calf thymus; read-out: ID50 cellular polymerase α
T2 construct: purified from calf thymus; from tissue; host or cells: calf thymus
T2 sequence (A0AAA9TD94 1-1441): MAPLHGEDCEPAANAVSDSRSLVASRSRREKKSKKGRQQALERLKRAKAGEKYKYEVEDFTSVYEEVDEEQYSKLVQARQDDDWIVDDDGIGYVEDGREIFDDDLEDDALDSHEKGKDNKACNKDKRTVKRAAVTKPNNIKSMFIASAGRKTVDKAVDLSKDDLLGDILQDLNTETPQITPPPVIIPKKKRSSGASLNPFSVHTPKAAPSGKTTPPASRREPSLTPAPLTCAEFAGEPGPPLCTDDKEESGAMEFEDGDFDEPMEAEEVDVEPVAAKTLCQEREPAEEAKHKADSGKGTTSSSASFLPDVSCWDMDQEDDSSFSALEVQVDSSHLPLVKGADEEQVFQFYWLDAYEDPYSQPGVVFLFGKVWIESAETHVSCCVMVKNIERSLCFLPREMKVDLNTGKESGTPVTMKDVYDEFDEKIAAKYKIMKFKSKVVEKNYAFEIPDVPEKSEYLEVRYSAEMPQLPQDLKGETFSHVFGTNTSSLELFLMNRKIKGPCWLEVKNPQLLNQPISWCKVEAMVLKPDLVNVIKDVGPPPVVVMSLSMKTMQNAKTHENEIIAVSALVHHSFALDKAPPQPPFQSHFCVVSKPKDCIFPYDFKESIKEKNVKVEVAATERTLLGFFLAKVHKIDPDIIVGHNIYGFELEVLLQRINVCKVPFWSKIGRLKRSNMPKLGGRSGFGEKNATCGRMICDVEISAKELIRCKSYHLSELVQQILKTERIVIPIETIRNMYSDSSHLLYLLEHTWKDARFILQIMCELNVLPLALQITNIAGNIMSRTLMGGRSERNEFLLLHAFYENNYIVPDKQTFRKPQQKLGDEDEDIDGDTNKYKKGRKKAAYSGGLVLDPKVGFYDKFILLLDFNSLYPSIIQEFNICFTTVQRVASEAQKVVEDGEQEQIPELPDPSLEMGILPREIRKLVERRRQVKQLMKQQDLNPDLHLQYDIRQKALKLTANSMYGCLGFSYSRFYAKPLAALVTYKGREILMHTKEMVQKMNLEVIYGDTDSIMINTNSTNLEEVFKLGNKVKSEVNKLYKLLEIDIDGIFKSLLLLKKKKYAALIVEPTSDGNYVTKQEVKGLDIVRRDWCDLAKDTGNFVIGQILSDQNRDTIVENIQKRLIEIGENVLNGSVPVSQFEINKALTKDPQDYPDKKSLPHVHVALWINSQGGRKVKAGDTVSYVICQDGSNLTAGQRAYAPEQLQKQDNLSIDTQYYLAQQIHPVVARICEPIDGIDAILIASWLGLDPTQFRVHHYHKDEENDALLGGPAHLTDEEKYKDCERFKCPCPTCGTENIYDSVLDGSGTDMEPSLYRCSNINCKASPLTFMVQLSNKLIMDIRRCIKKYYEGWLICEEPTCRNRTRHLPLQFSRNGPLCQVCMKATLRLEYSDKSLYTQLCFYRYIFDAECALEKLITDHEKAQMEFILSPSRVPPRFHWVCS
Description: (§1) The strong inhibiting effect of 3'-fluoro-substituted deoxynucleotides against HIV-reverse transcriptase can be utilized therapeutically only if the cellular DNA polymerases, especially the DNA polymerase α which is required for the replication of the cellular DNA, remain substantially unaffected. […] The ID50 values for the DNA polymerase β responsible for cellular DNA repair vary between 1,8-15 μm. Both enzymes cellular DNA polymerase α and β were purified from calf thymus and tested according to the method of E. Matthes et al., Biomed. Biochim. Acta 44. K63 (1985).

[3] = molecular target: T3, cellular DNA polymerase β (Bos taurus, UniProt Q27958); experiment: Effect on cellular DNA polymerase β; type: biochemical; conditions: enzyme purified from calf thymus; read-out: ID50 cellular polymerase β
T3 construct: purified from calf thymus; from tissue; host or cells: calf thymus
Description: as §1

[4] = system: HIV; experiment: Inhibition of the cytopathic effect of HIV on MT-4 cells; type: cell-based; conditions: MT-4 cells, 6 days of incubation; for EC50: Human immunodeficiency virus 1, MT4, 144 h, read-out: 50% antiviral dose (ED50)
Description: (§2) Under in vitro conditions immortalized T-lymphocytes can be killed within few days by the cytopathic effect of HIV. […] For this purpose about 20,000 MT-4 cells (Harada et al. Science 229, 563 (1985)) Were infected with HIV (titer: 0.04 m.o.i.) and incubated in the presence or absence of varying concentrations of compounds according to formula I, with 10% fetal calf serum (FCS) in 200 μl RPMI medium. After 6 days of incubation the viable cells were counted that were excluded from trypan blue staining.

[5] = in vitro; conditions: human, mt-4 cells
Description: as §2

[6] = molecular target: T4, thymidine-phosphorylase from human spleen (Homo sapiens, UniProt P19971); experiment: Phosphorolytic cleavage by thymidine-phosphorylase; type: in vitro ADME; conditions: for metabolised at 3 h, 1000 µM: 1 mM, within 3 hours, read-out: extent of cleavage by thymidine-phosphorylase
T4 construct: thymidine-phosphorylase from human spleen; from tissue; host or cells: human spleen
T4 sequence (P19971 11-482): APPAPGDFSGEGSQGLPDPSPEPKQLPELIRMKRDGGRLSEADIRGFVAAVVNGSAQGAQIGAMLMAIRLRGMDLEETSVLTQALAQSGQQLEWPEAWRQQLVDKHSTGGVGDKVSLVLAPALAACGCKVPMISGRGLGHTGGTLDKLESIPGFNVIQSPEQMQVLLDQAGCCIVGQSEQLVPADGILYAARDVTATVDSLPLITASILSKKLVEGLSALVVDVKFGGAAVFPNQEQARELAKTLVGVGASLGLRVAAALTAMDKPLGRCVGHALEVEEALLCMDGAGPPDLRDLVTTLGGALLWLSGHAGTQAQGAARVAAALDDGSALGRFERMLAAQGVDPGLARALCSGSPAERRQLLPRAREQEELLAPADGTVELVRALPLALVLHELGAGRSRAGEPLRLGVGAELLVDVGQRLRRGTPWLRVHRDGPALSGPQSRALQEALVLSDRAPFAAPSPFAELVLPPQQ
Description: Therefore FTdR, FddBrUrd and FddFUrd were investigated for their ability to be cleaved by thymidine-phosphorylase from human spleen.

[7] = concentration required for 50% inhibition

Cc1cn([C@H]2C[C@H](N=[N+]=[N-])[C@@H](CO[P@](=O)(O)O[P@](=O)(O)OP(=O)(O)O)O2)c(=O)[nH]c1=O [3'-azidothymidinetriphosphate, reference compound]
IC50 ([1]; estimated under our conditions): ~50 µM

Cc1cn([C@H]2C[C@H](Cl)[C@@H](COP(=O)(O)OP(=O)(O)OP(=O)(O)O)O2)c(=O)[nH]c1=O [3'-chloro-2',3'-dideoxythymidine triphosphate, reference compound]
efficacy against HIV-associated reverse transcriptase [1]: completely ineffective

CCc1cn([C@H]2C[C@H](F)[C@@H](COP(=O)(O)OP(=O)(O)OP(=O)(O)O)O2)c(=O)[nH]c1=O [Compound F5EtdUTP, 2'-3'-dideoxy-3'-fluoro-5-ethyluridine-5'-triphphosphate]
IC50 [1, 7]: 7.5 µM
IC50 [2]: 10 µM
IC50 [3]: 4 µM

O=c1[nH]c(=O)n([C@H]2C[C@H](F)[C@@H](COP(=O)(O)OP(=O)(O)OP(=O)(O)O)O2)cc1F [Compound F5FdUTP, 2'-3'-dideoxy-3'-fluoro-5-fluorouridine-5'-triphosphate]
IC50 [1, 7]: 0.45 µM
IC50 [2]: > 200 µM
IC50 [3]: 15 µM

O=c1[nH]c(=O)n([C@@H]2O[C@H](CO)[C@@H](F)[C@@H]2O)cc1Br [FaraBrU, 3'-deoxy-3'-fluoroarabinosyl-5-bromouracil]
EC50 [4]: > 100 µM
CC50 at 144 h [5]: > 100 µM

Nc1ccn([C@@H]2O[C@H](CO)[C@@H](F)[C@@H]2O)c(=O)n1 [FaraC, 3'-deoxy-3'-fluoroarabinosylcytosine]
EC50 [4]: > 100 µM
CC50 at 144 h [5]: > 100 µM

O=c1ccn([C@@H]2O[C@H](CO)[C@@H](F)[C@@H]2O)c(=O)[nH]1 [FaraU, 3'-deoxy-3'-fluoroarabinosyluracil]
EC50 [4]: > 500 µM
CC50 at 144 h [5]: > 500 µM

Nc1nc2c(ncn2[C@H]2C[C@H](F)[C@@H](COP(=O)(O)OP(=O)(O)OP(=O)(O)O)O2)c(=O)[nH]1 [FdGTP, 2'-3'-dideoxy-3'-fluoroguanosine-5'-triphosphate]
IC50 [1, 7]: 0.05 µM
IC50 [2]: > 200 µM
IC50 [3]: 1.8 µM

O=c1ccn([C@H]2C[C@H](F)[C@@H](COP(=O)(O)OP(=O)(O)OP(=O)(O)O)O2)c(=O)[nH]1 [FdUTP, 2'-3'-dideoxy-3'-fluorouridine-5'-triphosphate]
IC50 [1, 7]: 0.07 µM
IC50 [2]: > 200 µM
IC50 [3]: 3 µM

Nc1ncnc2c1ncn2[C@H]1C[C@H](F)[C@@H](CO)O1 [FddAdo, 2'-3'-dideoxy-3'-fluoroadenosine]
EC50 [4]: > 100 µM
CC50 at 144 h [5]: 75 µM

O=c1[nH]c(=O)n([C@H]2C[C@H](F)[C@@H](CO)O2)cc1Br [FddBrUrd, 2'-3'-dideoxy-3'-fluoro-5-bromouridine]
metabolised at 3 h, 1000 µM [6]: 3 to 8%
EC50 [4]: 5 µM
CC50 at 144 h [5]: 190 µM

N#Cc1cn([C@H]2C[C@H](F)[C@@H](CO)O2)c(=O)[nH]c1=O [FddCNUrd, 2'-3'-dideoxy-3'-fluoro-5-cyanouridine]
50% antiviral dose (ED50) [4]: not detectable
CC50 at 144 h [5]: > 500 µM

Nc1ccn([C@H]2C[C@H](F)[C@@H](CO)O2)c(=O)n1 [FddCyt, 2'-3'-dideoxy-3'-fluorocytidine]
EC50 [4]: 25 µM
CC50 at 144 h [5]: 62 µM

Nc1nc(N)c2ncn([C@H]3C[C@H](F)[C@@H](CO)O3)c2n1 [FddDAPR, 2'-3'-dideoxy-3'-fluoro-2,6-diaminopurineriboside]
EC50 [4]: 6 µM
CC50 at 144 h [5]: 480 µM

CCc1cn([C@H]2C[C@H](F)[C@@H](CO)O2)c(=O)[nH]c1=O [FddEtUrd, 2'-3'-dideoxy-3'-fluoro-5-ethyluridine]
EC50 [4]: > 500 µM
CC50 at 144 h [5]: > 500 µM

O=c1[nH]c(=O)n([C@H]2C[C@H](F)[C@@H](CO)O2)cc1F [FddFUrd, 2'-3'-dideoxy-3'-fluoro-5-fluorouridine]
metabolised at 3 h, 1000 µM [6]: 3 to 8%
50% antiviral dose (ED50) [4]: not detectable
CC50 at 144 h [5]: > 200 µM

Nc1nc2c(ncn2[C@H]2C[C@H](F)[C@@H](CO)O2)c(=O)[nH]1 [FddGuo, 2'-3'-dideoxy-3'-fluoroguanosine]
EC50 [4]: 5 µM
CC50 at 144 h [5]: 250 µM

O=c1[nH]c(=O)n([C@H]2C[C@H](F)[C@@H](CO)O2)cc1CO [FddHMUrd, 2'-3'-dideoxy-3'-fluoro-5-hydroxymethyluridine]
EC50 [4]: > 500 µM
CC50 at 144 h [5]: > 500 µM

Cc1cn([C@H]2C[C@H](F)[C@@H](CO)O2)c(=O)nc1N [FddMCyt, 2'-3'-dideoxy-3'-fluoromethylcytidine]
EC50 [4]: 125 µM
CC50 at 144 h [5]: 125 µM

Cc1cn([C@H]2C[C@H](O)[C@@H](CO)O2)c(=O)[nH]c1=O [thymidine, reference compound]
metabolised at 2 h [6]: 90%
